Assay results taken from ChEMBL document CHEMBL5053491, “Rational designed highly sensitive NQO1-activated near-infrared fluorescent probe combined with NQO1 substrates in vivo: An innovative strategy for NQO1-overexpressing cancer theranostics” (Eur J Med Chem, 2021).
≈ marks a conversion by molar mass, not a printed value.

Legend:
[1] = target: NAD(P)H dehydrogenase [quinone] 1 (Homo sapiens) (UniProt P15559); assay: Substrate activity at recombinant human NQO1 assessed as enzyme activity by measuring oxidation of NADPH incubated for 5 mins measured per micromol of NADPH by NADPH recycling assay
NAD(P)H dehydrogenase [quinone] 1 (Homo sapiens), sequence (P15559 whole entry): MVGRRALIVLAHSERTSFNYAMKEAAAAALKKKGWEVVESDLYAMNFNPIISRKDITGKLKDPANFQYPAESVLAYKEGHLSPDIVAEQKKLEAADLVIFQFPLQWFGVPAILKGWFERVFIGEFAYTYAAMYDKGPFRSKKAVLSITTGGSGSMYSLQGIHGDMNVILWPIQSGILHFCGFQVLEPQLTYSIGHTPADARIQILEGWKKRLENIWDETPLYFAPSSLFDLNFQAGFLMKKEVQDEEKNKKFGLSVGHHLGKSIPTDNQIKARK

[2] = Drug uptake in BALB/c nude mouse infected with human A549 cells at 5 mg/kg, iv measured upto 15 mins by fluorescence spectrophotometric analysis; assay type: ADME, organism-based; details: in vivo, 0.25 h
[3] = system: A549; assay: Antitumor activity against human A549 cells xenografted in BALB/c nude mouse assessed as tumor volume change at 30 mg/kg, ip administered for 21 days; assay type: functional; details: time 21 day
[4] = system: A549; assay: Antitumor activity against human A549 cells xenografted in BALB/c nude mouse assessed as tumor inhibition rate at 30 mg/kg, ip administered for 21 days; assay type: functional; parameters: scale not given: the % may be the effect or the level left; details: time 21 day
[5] = system: A549; assay: Antitumor activity against human A549 cells xenografted in BALB/c nude mouse assessed as fluorescence intensity at 30 mg/kg, ip administered for 21 days; assay type: functional; details: time 21 day
[6] = Stability of compound in mouse plasma assessed as compound remaining at 37 degree C measured after 24 hrs by HPLC analysis; assay type: ADME, cell-free
[7] = Drug uptake in NQO1-deficient human NCI-H596 cells at 10 uM incubated for 20 mins by confocal microscopy; assay type: ADME, cell-based; details: nci-h596, 20 min
[8] = Stability of compound in rat plasma assessed as compound remaining at 37 degree C measured after 24 hrs by HPLC analysis; assay type: ADME, cell-free
[9] = Drug uptake in NQO1 rich human A549 cells at 10 uM incubated for 20 mins by confocal microscopy; assay type: ADME, cell-based; details: a549, 20 min
[10] = Stability of compound in PBS at pH 4 to 9 assessed as compound remaining at 37 degree C measured after 24 hrs by HPLC analysis; assay type: physicochemical; details: buffer, pH 4, 24 h
[11] = system: A549; assay: Cytotoxicity against human A549 cells assessed as growth inhibition measured after 72 hrs by MTT assay; assay type: functional; parameters: scale not given: the % may be the effect or the level left
[12] = Stability of compound in human plasma assessed as compound remaining at 37 degree C measured after 24 hrs by HPLC analysis; assay type: ADME, cell-free
[13] = Water solubility of compound by HPLC analysis; assay type: physicochemical

**Q.** With `O=C(O)CCC1=CC(=O)c2ccccc2C1=O` as the compound, how does the Activity [1] read?
**A.** Its Activity is 900 µmol/min.

**Q.** For `CC1=C(C)C(=O)C(C(C)(C)CC(=O)N(C)c2ccc(COC(=O)N3c4ccc(N(C)C)cc4Sc4cc(N(C)C)ccc43)cc2)=C(C)C1=O`, which Drug uptake [2] is on record?
**A.** The Drug uptake was “Not Active”.

**Q.** With `CC1=C(C(C)(C)CC(=O)O)C(=O)c2ccccc2C1=O` as the compound, how does the Activity [1] read?
**A.** Its Activity is 1480 µmol/min.

**Q.** Which Activity [3] does the source give for `Cc1cc2c(cc1C)-c1oc(CN3CCN(C)CC3)c(C)c1C(=O)C2=O` here?
**A.** Its Activity is 77%.

**Q.** What about the Activity [4] of the same compound?
**A.** The Activity was 79.8%.

**Q.** Which Activity [5] does the source give for `CC1=C(C(C)(C)CC(=O)N(C)c2ccc(COC(=O)N3c4ccc(N(C)C)cc4Sc4cc(N(C)C)ccc43)cc2)C(=O)c2ccccc2C1=O` here?
**A.** Its Activity is 75.6%.

**Q.** And the Stability [6]?
**A.** The Stability was “Stable”.

**Q.** And the Drug uptake [7]?
**A.** Its Drug uptake is “Not Active”.

**Q.** And the Stability [8]?
**A.** Its Stability is “Stable”.

**Q.** What about the Drug uptake [9] of the same compound?
**A.** The Drug uptake was “Active”.

**Q.** And the Stability [10]?
**A.** The Stability was “Stable”.

**Q.** And the Activity [11]?
**A.** The Activity was over 80%.

**Q.** What about the Drug uptake [2] of the same compound?
**A.** Its Drug uptake is “Active”.

**Q.** And the Stability [12]?
**A.** The Stability was “Stable”.

**Q.** And the solubility [13]?
**A.** Its solubility is 6.5 µg/mL (≈ 9.25 µM).

**Q.** For `CC(C)(CC(=O)O)C1=CC(=O)c2ccccc2C1=O`, which Activity [1] is on record?
**A.** The Activity was 1220 µmol/min.

**Q.** With `CC1=C(CCC(=O)O)C(=O)c2ccccc2C1=O` as the compound, how does the Activity [1] read?
**A.** The Activity was 1080 µmol/min.

**Q.** What does the source list for `CC1(C)CCC2=C(O1)c1ccccc1C(=O)C2=O` [LAPACHONE]?
**A.** Activity [3]: 69.1%; Activity [4]: 67.7%

**Q.** Which Activity [1] does the source give for `CC1=C(C)C(=O)C(C(C)(C)CC(=O)O)=C(C)C1=O` here?
**A.** The Activity was 1070 µmol/min.

**Q.** Which Activity [5] does the source give for `O=c1[nH]cc(F)c(=O)[nH]1` [FLUOROURACIL] here?
**A.** The Activity was 75.7%.
